ChEMBL document CHEMBL5584264 (Bioorg Med Chem Lett, 2024)
In brackets after ≈: the same amount, converted by molar mass.

Assays:
RAW264.7 [1] = test: Antiinflammatory activity against LPS-induced mouse RAW264.7 cells assessed as reduction in IL-6 level at 30 uM preincubated with compound for 1 hr followed by LPS-induction and measured after 24 hrs by ELISA analysis relative to control; assay type: functional; design: scale not given: the % may be the effect or the level left; settings: time 25 hrs
RAW264.7 [2] = test: Antiinflammatory activity against LPS-induced mouse RAW264.7 cells assessed as cell viability at 1 uM by celltiter-blue cell viability assay; assay type: functional; settings: read-out: Activity
RAW264.7 [3] = test: Antiinflammatory activity against LPS-induced mouse RAW264.7 cells assessed as reduction in IL-6 level at 1 uM preincubated with compound for 1 hr followed by LPS-induction and measured after 24 hrs by ELISA analysis relative to control; assay type: functional; design: scale not given: the % may be the effect or the level left; settings: time 25 hrs
RAW264.7 [4] = test: Antiinflammatory activity against LPS-induced mouse RAW264.7 cells assessed as reduction in nitrite level at 30 uM preincubated with compound for 1 hr followed by LPS-induction and measured after 24 hrs by Fluorometric Assay relative to control; assay type: functional; design: scale not given: the % may be the effect or the level left; settings: time 25 hrs
RAW264.7 [5] = test: Antiinflammatory activity against LPS-induced mouse RAW264.7 cells assessed as cell viability at 30 uM by celltiter-blue cell viability assay; assay type: functional; settings: read-out: Activity
RAW264.7 [6] = test: Antiinflammatory activity against LPS-induced mouse RAW264.7 cells assessed as reduction in nitrite level at 10 uM preincubated with compound for 1 hr followed by LPS-induction and measured after 24 hrs by Fluorometric Assay relative to control; assay type: functional; design: scale not given: the % may be the effect or the level left; settings: time 25 hrs
RAW264.7 [7] = test: Antiinflammatory activity against LPS-induced mouse RAW264.7 cells assessed as reduction in IL-6 level preincubated with compound for 1 hr followed by LPS-induction and measured after 24 hrs by ELISA analysis; assay type: functional, cell-based; settings: dose 1-30 µM, time 25.0 hrs
RAW264.7 [8] = test: Antiinflammatory activity against LPS-induced mouse RAW264.7 cells assessed as reduction in TNF-alpha level at 30 uM preincubated with compound for 1 hr followed by LPS-induction and measured after 24 hrs by ELISA analysis relative to control; assay type: functional; design: scale not given: the % may be the effect or the level left; settings: time 25 hrs
RAW264.7 [9] = test: Antiinflammatory activity against LPS-induced mouse RAW264.7 cells assessed as reduction in TNF-alpha level at 10 uM preincubated with compound for 1 hr followed by LPS-induction and measured after 24 hrs by ELISA analysis relative to control; assay type: functional; design: scale not given: the % may be the effect or the level left; settings: time 25 hrs
RAW264.7 [10] = test: Antiinflammatory activity against LPS-induced mouse RAW264.7 cells assessed as reduction in IL-6 level at 10 uM preincubated with compound for 1 hr followed by LPS-induction and measured after 24 hrs by ELISA analysis relative to control; assay type: functional; design: scale not given: the % may be the effect or the level left; settings: time 25 hrs
RAW264.7 [11] = test: Antiinflammatory activity against LPS-induced mouse RAW264.7 cells assessed as reduction in nitrite level preincubated with compound for 1 hr followed by LPS-induction and measured after 24 hrs by Fluorometric Assay; assay type: functional, cell-based; settings: dose 1-30 µM, time 25.0 hrs
RAW264.7 [12] = test: Antiinflammatory activity against LPS-induced mouse RAW264.7 cells assessed as cell viability at 10 uM by celltiter-blue cell viability assay; assay type: functional; settings: read-out: Activity
[13] = target: Protein cereblon/DNA damage-binding protein 1 (Homo sapiens) (UniProt Q96SW2+Q16531); test: Displacement of Cy5-tagged thalidomide-like probe from human CRBN/DDB1 complex by fluorescence polarization based CRBN binding assay; assay type: protein assay
[14] = target: Sigma intracellular receptor 2 (Homo sapiens, UniProt Q5BJF2); test: Displacement of [3H]DTG from sigma-2 receptor (unknown origin) assessed as inhibition constant
[15] = target: 5-hydroxytryptamine receptor 2B (Homo sapiens, UniProt P41595); test: Displacement of [3H]DTG from 5HT2B receptor (unknown origin) assessed as inhibition constant
RAW264.7 [16] = test: Antiinflammatory activity against LPS-induced mouse RAW264.7 cells assessed as reduction in nitrite level at 1 uM preincubated with compound for 1 hr followed by LPS-induction and measured after 24 hrs by Fluorometric Assay relative to control; assay type: functional; design: scale not given: the % may be the effect or the level left; settings: time 25 hrs
RAW264.7 [17] = test: Antiinflammatory activity against LPS-induced mouse RAW264.7 cells assessed as reduction in TNF-alpha level at 1 uM preincubated with compound for 1 hr followed by LPS-induction and measured after 24 hrs by ELISA analysis relative to control; assay type: functional; design: scale not given: the % may be the effect or the level left; settings: time 25 hrs
[18] = target: Sigma non-opioid intracellular receptor 1 (Homo sapiens, UniProt Q99720); test: Displacement of [3H]DTG from sigma-1 receptor (unknown origin) assessed as inhibition constant
[19] = target: 5-hydroxytryptamine receptor 2A (Homo sapiens, UniProt P28223); test: Displacement of [3H]DTG from 5HT2A receptor (unknown origin) assessed as inhibition constant
[20] = target: Serotonin 3 (5-HT3) receptor; test: Displacement of [3H]DTG from 5HT3 receptor (unknown origin) assessed as inhibition constant; assay type: protein-complex assay, Homo sapiens
[21] = Solubility of compound in PBS at pH 7.4 by LC/MS analysis; assay type: physicochemical

Protein cereblon/DNA damage-binding protein 1 (Homo sapiens), sequence (Q16531 2-1140 partner limits assumed): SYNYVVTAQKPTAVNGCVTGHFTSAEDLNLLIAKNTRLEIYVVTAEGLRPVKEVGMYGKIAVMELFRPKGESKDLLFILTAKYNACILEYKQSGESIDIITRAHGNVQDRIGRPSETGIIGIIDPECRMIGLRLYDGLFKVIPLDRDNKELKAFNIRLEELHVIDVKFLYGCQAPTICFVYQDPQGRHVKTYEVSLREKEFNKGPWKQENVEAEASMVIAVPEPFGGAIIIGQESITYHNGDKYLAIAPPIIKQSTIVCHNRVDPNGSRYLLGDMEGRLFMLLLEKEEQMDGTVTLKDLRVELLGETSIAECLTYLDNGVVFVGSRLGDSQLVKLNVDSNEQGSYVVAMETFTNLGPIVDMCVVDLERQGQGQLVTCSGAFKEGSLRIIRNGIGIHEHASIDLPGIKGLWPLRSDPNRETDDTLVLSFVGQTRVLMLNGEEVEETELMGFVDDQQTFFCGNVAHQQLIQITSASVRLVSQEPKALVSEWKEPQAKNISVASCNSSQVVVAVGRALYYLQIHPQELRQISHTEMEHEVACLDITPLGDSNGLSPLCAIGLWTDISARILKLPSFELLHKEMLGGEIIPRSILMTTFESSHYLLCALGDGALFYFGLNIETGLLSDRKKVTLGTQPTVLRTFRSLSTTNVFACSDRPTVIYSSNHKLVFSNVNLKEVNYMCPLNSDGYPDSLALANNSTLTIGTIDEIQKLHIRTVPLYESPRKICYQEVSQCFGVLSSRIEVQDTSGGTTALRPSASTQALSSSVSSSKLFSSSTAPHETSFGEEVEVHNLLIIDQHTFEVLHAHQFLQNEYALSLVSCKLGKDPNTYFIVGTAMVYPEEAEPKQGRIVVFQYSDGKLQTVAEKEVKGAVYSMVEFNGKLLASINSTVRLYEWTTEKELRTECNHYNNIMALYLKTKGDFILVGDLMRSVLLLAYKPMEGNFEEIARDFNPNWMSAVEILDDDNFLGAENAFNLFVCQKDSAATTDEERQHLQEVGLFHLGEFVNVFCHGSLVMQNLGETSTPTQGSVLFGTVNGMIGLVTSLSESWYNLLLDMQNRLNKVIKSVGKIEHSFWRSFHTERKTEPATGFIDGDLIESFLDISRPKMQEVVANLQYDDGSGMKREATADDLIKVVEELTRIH
Protein cereblon/DNA damage-binding protein 1 (Homo sapiens), sequence (Q96SW2 whole entry): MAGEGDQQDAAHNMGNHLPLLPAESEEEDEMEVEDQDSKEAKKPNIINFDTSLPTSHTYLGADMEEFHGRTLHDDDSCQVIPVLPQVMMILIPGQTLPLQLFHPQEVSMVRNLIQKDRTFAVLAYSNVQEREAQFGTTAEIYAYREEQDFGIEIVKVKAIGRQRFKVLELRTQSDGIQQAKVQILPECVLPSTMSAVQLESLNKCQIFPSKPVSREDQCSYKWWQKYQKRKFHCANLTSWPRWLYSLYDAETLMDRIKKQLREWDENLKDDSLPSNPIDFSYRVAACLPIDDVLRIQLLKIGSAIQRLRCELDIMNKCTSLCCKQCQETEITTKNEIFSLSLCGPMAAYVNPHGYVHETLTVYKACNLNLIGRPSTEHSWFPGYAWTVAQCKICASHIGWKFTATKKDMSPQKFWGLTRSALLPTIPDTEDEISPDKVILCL
5-hydroxytryptamine receptor 2B, sequence (P41595 whole entry): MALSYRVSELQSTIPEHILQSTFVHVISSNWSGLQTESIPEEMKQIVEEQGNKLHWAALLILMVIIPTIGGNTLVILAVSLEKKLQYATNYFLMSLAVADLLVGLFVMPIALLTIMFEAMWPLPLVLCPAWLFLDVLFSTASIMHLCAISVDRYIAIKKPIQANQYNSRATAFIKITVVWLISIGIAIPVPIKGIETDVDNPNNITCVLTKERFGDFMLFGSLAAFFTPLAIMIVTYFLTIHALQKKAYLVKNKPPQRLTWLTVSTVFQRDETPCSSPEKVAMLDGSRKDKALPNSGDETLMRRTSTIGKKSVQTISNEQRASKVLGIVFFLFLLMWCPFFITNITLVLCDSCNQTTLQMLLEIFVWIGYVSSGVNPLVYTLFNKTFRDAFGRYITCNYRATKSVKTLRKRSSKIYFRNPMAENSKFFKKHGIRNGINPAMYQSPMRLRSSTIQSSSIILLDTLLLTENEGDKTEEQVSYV
Sigma intracellular receptor 2, sequence (Q5BJF2 whole entry): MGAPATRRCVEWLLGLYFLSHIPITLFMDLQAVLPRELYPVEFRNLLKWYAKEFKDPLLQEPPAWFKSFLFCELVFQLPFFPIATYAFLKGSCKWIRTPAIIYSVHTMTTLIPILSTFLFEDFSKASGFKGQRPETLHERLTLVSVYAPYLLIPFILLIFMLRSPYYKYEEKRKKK
5-hydroxytryptamine receptor 2A, sequence (P28223 whole entry): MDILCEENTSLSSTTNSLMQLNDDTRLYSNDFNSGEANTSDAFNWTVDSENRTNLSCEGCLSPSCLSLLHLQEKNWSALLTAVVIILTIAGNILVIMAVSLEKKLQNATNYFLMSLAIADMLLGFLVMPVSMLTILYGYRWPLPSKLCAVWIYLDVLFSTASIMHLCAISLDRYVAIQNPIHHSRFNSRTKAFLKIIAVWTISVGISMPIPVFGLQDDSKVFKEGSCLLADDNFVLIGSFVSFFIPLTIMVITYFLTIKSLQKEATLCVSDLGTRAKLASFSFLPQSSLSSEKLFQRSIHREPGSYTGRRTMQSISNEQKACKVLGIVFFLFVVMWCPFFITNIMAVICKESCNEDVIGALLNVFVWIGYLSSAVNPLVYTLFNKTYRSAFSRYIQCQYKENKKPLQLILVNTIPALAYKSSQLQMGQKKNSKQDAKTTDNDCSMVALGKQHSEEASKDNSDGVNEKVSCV
Sigma non-opioid intracellular receptor 1, sequence (Q99720 whole entry): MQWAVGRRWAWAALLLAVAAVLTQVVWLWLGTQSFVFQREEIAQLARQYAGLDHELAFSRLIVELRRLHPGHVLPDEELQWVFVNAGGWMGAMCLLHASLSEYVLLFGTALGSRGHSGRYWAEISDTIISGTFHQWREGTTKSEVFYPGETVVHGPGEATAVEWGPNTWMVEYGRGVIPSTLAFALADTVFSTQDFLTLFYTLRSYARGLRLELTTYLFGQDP

Compound | viability at 1 µM (RAW264.7 [2]) [%] | Activity (RAW264.7 [4]) [%] | viability at 30 µM (RAW264.7 [5]) [%] | Activity (RAW264.7 [6]) [%] | Activity (RAW264.7 [8]) [%] | Activity (RAW264.7 [9]) [%] | Activity (RAW264.7 [11]) | viability at 10 µM (RAW264.7 [12]) [%] | Activity (RAW264.7 [16]) [%] | Activity (RAW264.7 [17]) [%] | other results
Nc1cccc2c1C(=O)N([C@@H]1CCCNC1)C2=O | 100 | 68 | 114 | 87 | 91 | 95 | Dose-Dependent Effect | 103 |  |  | Activity (RAW264.7 [1]): 60%; Activity (RAW264.7 [3]): 108%; Activity (RAW264.7 [7]): Dose-Dependent Effect; Activity (RAW264.7 [10]): 72%
Nc1cccc2c1C(=O)N(C1CCCNC1)C2=O (racemic) | 100 | 83 | 105 | 91 | 104 |  | Dose-Dependent Effect | 99 | 97 |  | Activity (RAW264.7 [1]): 82%; Activity [13]: Dose-Dependent Effect; Ki [14]: 2.2 µM; Activity (RAW264.7 [3]): 83%; Ki [15]: 0.561 µM; Activity (RAW264.7 [10]): 88%
CN1CCCC(N2C(=O)c3cccc(N)c3C2=O)C1 (racemic) |  |  |  | 105 |  | 116 |  | 95 |  | 111 | Activity [13]: Dose-Dependent Effect
Nc1cccc2c1C(=O)N(C1CCCN(C(=O)C(F)(F)F)C1)C2=O (stereo not given) | 103 | 100 | 99 | 90 | 94 |  |  | 103 | 92 |  | 
CC(C)N1CCC[C@@H](N2C(=O)c3cccc(N)c3C2=O)C1 | 96 | 153 | 90 | 99 | 114 | 110 |  | 99 | 126 | 106 | 
CCN1CCC[C@@H](N2C(=O)c3cccc(N)c3C2=O)C1 | 106 | 80 | 102 | 93 | 96 | 97 | Dose-Dependent Effect | 104 | 93 | 92 | 
CCN1CCCC(N2C(=O)c3cccc(N)c3C2=O)C1 (racemic) | 101 | 90 | 97 | 101 | 102 | 112 |  | 99 | 101 | 115 | 
CC(=O)N1CCCC(N2C(=O)c3cccc(N)c3C2=O)C1 (stereo not given) | 102 | 81 | 101 | 88 | 86 | 86 | Dose-Dependent Effect | 103 | 95 | 95 | Ki [18]: 2.4 µM; Activity (RAW264.7 [1]): 89%; Activity [13]: Dose-Dependent Effect; Ki [14]: 5.2 µM; Activity (RAW264.7 [3]): 111%; Ki [19]: 5.2 µM; Activity (RAW264.7 [10]): 106%
CN1CCC[C@H](N2C(=O)c3cccc(N)c3C2=O)C1 | 110 |  |  |  | 106 |  | Dose-Dependent Effect | 111 |  |  | 
CCN1CCC[C@H](N2C(=O)c3cccc(N)c3C2=O)C1 | 100 | 114 | 94 | 120 | 109 | 111 |  | 96 | 115 | 114 | 
CS(=O)(=O)N1CCCC(N2C(=O)c3cccc(N)c3C2=O)C1 (stereo not given) | 103 | 95 | 103 | 103 | 96 | 99 |  | 103 | 92 | 98 | Activity (RAW264.7 [1]): 116%; Activity [13]: Dose-Dependent Effect; Activity (RAW264.7 [3]): 111%; Ki [15]: > 10 µM; Ki [20]: > 10 µM; Ki [19]: > 10 µM; Activity (RAW264.7 [10]): 112%
CN1CCC[C@@H](N2C(=O)c3cccc(N)c3C2=O)C1 | 100 | 95 |  | 101 |  | 100 |  | 100 |  | 108 | 
Nc1cccc2c1C(=O)N(C1CCCN(C(=O)C3CC3)C1)C2=O (stereo not given) | 99 | 89 | 109 | 94 | 100 | 100 |  | 102 |  |  | 
Nc1cccc2c1C(=O)N([C@H]1CCCNC1)C2=O | 104 | 83 | 103 |  | 94 | 94 | Dose-Dependent Effect | 102 | 110 |  | Activity (RAW264.7 [1]): 94%; Activity (RAW264.7 [7]): Dose-Dependent Effect; Activity (RAW264.7 [10]): 102%
CC(C)N1CCCC(N2C(=O)c3cccc(N)c3C2=O)C1 (racemic) | 105 | 123 | 95 | 100 | 103 | 109 |  | 100 | 109 | 100 | 
CC(C)N1CCC[C@H](N2C(=O)c3cccc(N)c3C2=O)C1 | 100 | 108 | 102 | 100 | 115 | 115 |  | 100 | 112 | 107 | 
Nc1cccc2c1C(=O)N(C1CCC(=O)NC1=O)C2=O (stereo not given) [POMALIDOMIDE] |  |  |  |  |  |  |  |  |  |  | solubility [21]: 85 µM (≈ 23.2 µg/mL)
